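Results reflect a 48-hour exposure of cells in 96-well plates to compound at five concentrations. Here, GI50 denotes the concentration required for 50% inhibition of growth. TGI marks complete inhibition of growth.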
Experiments:
Experiment in all cases: DTP human tumour cell line panel, 48 h
[1] = tested on: KM12 colon
[2] = tested on: SK-MEL-5 melanoma
[3] = tested on: SR leukemia
[4] = tested on: HS 578T breast
[5] = tested on: SNB-75 CNS
[6] = tested on: M14 melanoma
[7] = tested on: SF-539 CNS
[8] = tested on: K-562 leukemia
[9] = tested on: A549 NSCLC
[10] = tested on: NCI-H460 lung
[11] = tested on: RXF 393 renal
[12] = tested on: U251 CNS
[13] = tested on: UACC-257 melanoma
[14] = tested on: COLO 205 colon
[15] = tested on: HT29 colon
[16] = tested on: ACHN renal
[17] = tested on: SN12C renal
[18] = tested on: SNB-19 CNS
[19] = tested on: HCT-15 colon
[20] = tested on: LOX IMVI melanoma
[21] = tested on: OVCAR-3 ovarian
[22] = tested on: SF-268 CNS
[23] = tested on: HL-60(TB) leukemia
[24] = tested on: NCI-H226 lung
[25] = tested on: UACC-62 melanoma
[26] = tested on: SK-OV-3 ovarian
[27] = tested on: DU-145 prostate
[28] = tested on: A498 renal
[29] = tested on: NCI-H23 lung
[30] = tested on: MALME-3M melanoma
[31] = tested on: IGROV1 ovarian
[32] = tested on: UO-31 renal
[33] = tested on: OVCAR-8 ovarian
[34] = tested on: OVCAR-5 ovarian
[35] = tested on: MDA-MB-435
[36] = tested on: HOP-92 NSCLC
[37] = tested on: HCT-116 colon
[38] = tested on: CCRF-CEM leukemia
[39] = tested on: HOP-62 NSCLC
[40] = tested on: SK-MEL-28 melanoma
[41] = tested on: PC-3 prostate
[42] = tested on: MDA-MB-231 breast
[43] = tested on: MOLT-4 leukemia
[44] = tested on: SF-295 CNS
[45] = tested on: EKVX NSCLC
[46] = tested on: 786-0 renal
[47] = tested on: MCF7 breast
[48] = tested on: SK-MEL-2 melanoma
[49] = tested on: SW-620 colon
[50] = tested on: T-47D breast
[51] = tested on: TK-10 renal
[52] = tested on: OVCAR-4 ovarian
[53] = tested on: HCC-2998 colon
[54] = tested on: NCI-H522 lung
[55] = tested on: BT-549 breast
[56] = tested on: NCI/ADR-RES ovarian
[57] = tested on: RPMI-8226 leukemia

In the case of Clc1ccc2c(NCCCCNc3nc(N4CCOCC4)nc4ccccc34)ccnc2c1, the GI50 [1] is reported as 3.52 µM, the TGI [1] is reported as 12.4 µM and the GI50 [2] is reported as 1.83 µM. It also gave a TGI [2] of 3.3 µM, a GI50 [3] of 0.295 µM and a TGI [3] of 0.853 µM. The GI50 [4] was 2.25 µM, the TGI [4] was 7.66 µM and the GI50 [5] was 1.33 µM. It also gave a TGI [5] of 3.03 µM, a GI50 [6] of 2 µM and a TGI [6] of 3.91 µM. For the same compound, the GI50 [7] was 1.8 µM, the TGI [7] was 3.39 µM and the GI50 [8] was 1.43 µM. The TGI [8] was 11.2 µM, the GI50 [9] was 3.16 µM and the TGI [9] was 11.3 µM. It also gave a GI50 [10] of 2.22 µM, a TGI [10] of 5.22 µM and a GI50 [11] of 1.65 µM. It also gave a TGI [11] of 3.73 µM, a GI50 [12] of 1.84 µM and a TGI [12] of 3.66 µM. For the same compound, the GI50 [13] was 15.2 µM, the TGI [13] was 29.9 µM and the GI50 [14] was 1.87 µM. For the same compound, the TGI [14] was 4.49 µM, the GI50 [15] was 2.61 µM and the TGI [15] was 7.14 µM. For the same compound, the GI50 [16] was 1.9 µM, the TGI [16] was 3.6 µM and the GI50 [17] was 2.03 µM. For the same compound, the TGI [17] was 4.31 µM, the GI50 [18] was 3.37 µM and the TGI [18] was 12.6 µM. It also gave a GI50 [19] of 2.75 µM, a TGI [19] of 11.4 µM and a GI50 [20] of 1.73 µM. It also gave a TGI [20] of 3.25 µM, a GI50 [21] of 1.93 µM and a TGI [21] of 3.7 µM. For the same compound, the GI50 [22] was 3.29 µM, the TGI [22] was 13.7 µM and the GI50 [23] was 2.27 µM. The TGI [23] was 4.3 µM, the GI50 [24] was 1.72 µM and the TGI [24] was 3.68 µM. The GI50 [25] was 1.92 µM, the TGI [25] was 3.48 µM and the GI50 [26] was 3.03 µM. It also gave a TGI [26] of 9.97 µM, a GI50 [27] of 4.62 µM and a TGI [27] of 16.5 µM. The GI50 [28] was 1.83 µM, the TGI [28] was 4.28 µM and the GI50 [29] was 5.68 µM. It also gave a TGI [29] of 23.2 µM, a GI50 [30] of 2.05 µM and a TGI [30] of 3.89 µM. For the same compound, the GI50 [31] was 2.99 µM, the TGI [31] was 11.5 µM and the GI50 [32] was 1.66 µM. It also gave a TGI [32] of 3.12 µM, a GI50 [33] of 3.53 µM and a TGI [33] of 10.6 µM. The GI50 [34] was 3.36 µM, the TGI [34] was 12 µM and the GI50 [35] was 2.4 µM. The TGI [35] was 6.18 µM, the GI50 [36] was 1.88 µM and the TGI [36] was 4.29 µM. It also gave a GI50 [37] of 2.13 µM, a TGI [37] of 4.63 µM and a GI50 [38] of 3.42 µM. For the same compound, the TGI [38] was 9.38 µM, the GI50 [39] was 2.17 µM and the TGI [39] was 5.67 µM. For the same compound, the GI50 [40] was 2.03 µM, the TGI [40] was 4.03 µM and the GI50 [41] was 6.37 µM. For the same compound, the TGI [41] was 19.5 µM, the GI50 [42] was 2.1 µM and the TGI [42] was 4.5 µM. For the same compound, the GI50 [43] was 3.59 µM, the TGI [43] was 14 µM and the GI50 [44] was 1.79 µM. It also gave a TGI [44] of 3.73 µM, a GI50 [45] of 3.7 µM and a TGI [45] of 15.3 µM. For the same compound, the GI50 [46] was 2.28 µM, the TGI [46] was 5.94 µM and the GI50 [47] was 3.81 µM. It also gave a TGI [47] of 17.7 µM, a GI50 [48] of 2.23 µM and a TGI [48] of 5.02 µM. It also gave a GI50 [49] of 2.65 µM, a TGI [49] of 12.5 µM and a GI50 [50] of 2.23 µM. For the same compound, the TGI [50] was 6.82 µM, the GI50 [51] was 1.92 µM and the TGI [51] was 3.61 µM. The GI50 [52] was 2.2 µM, the TGI [52] was 5.52 µM and the GI50 [53] was 3.81 µM. It also gave a TGI [53] of 14 µM, a GI50 [54] of 2.34 µM and a TGI [54] of 5.6 µM. It also gave a GI50 [55] of 2.96 µM, a TGI [55] of 9.42 µM and a GI50 [56] of 4.88 µM. For the same compound, the TGI [56] was 20.6 µM, the GI50 [57] was 2.8 µM and the TGI [57] was 7.21 µM.

From PubChem BioAssay (NCI)
